Experimental data taken from BigSolDB 2.1.

CCCc1ncc(C[n+]2ccccc2C)c(N)n1.Cl.[Cl-]
solubility (mole fraction)
Conditions | 273.15 K | 278.15 K | 283.15 K | 288.15 K | 293.15 K | 298.15 K | 303.15 K | 308.15 K | 313.15 K
in 1,4-dioxane | – | – | – | 5.76e-05 | 7.08e-05 | 8.42e-05 | 9.99e-05 | 0.000115 | 0.000132
in acetone | 0.000227 | 0.000259 | 0.000291 | 0.000325 | 0.000359 | 0.000401 | 0.000444 | 0.000487 | 0.000533
in acetonitrile | 7.2e-06 | 9.3e-06 | 1.15e-05 | 1.42e-05 | 1.68e-05 | 1.98e-05 | 2.35e-05 | 2.79e-05 | 3.27e-05
in cyclohexanone | 0.000117 | 0.000146 | 0.000181 | 0.000217 | 0.000252 | 0.000287 | 0.000327 | – | –
in ethanol | 5.33e-05 | 6.8e-05 | 9.17e-05 | 0.000124 | 0.000159 | 0.000195 | 0.000232 | 0.000273 | 0.000319
in ethyl acetate | 2.48e-05 | 3.34e-05 | 4.3e-05 | 5.26e-05 | 6.41e-05 | 7.65e-05 | 8.91e-05 | 0.000104 | 0.00012
in isobutanol | 9.3e-06 | 1.3e-05 | 1.71e-05 | 2.18e-05 | 2.71e-05 | 3.33e-05 | 4.11e-05 | 4.98e-05 | 5.86e-05
in isopropanol | 1.12e-05 | 1.63e-05 | 2.25e-05 | 2.89e-05 | 3.83e-05 | 4.87e-05 | 6.13e-05 | 7.76e-05 | 9.49e-05
in methanol | 0.000272 | 0.000376 | 0.000476 | 0.00059 | 0.000722 | 0.000854 | 0.001 | 0.00115 | 0.0013
in n-butanol | 1.79e-05 | 2.34e-05 | 3.1e-05 | 3.89e-05 | 4.88e-05 | 6.01e-05 | 7.53e-05 | 9.25e-05 | 0.000109
in n-octanol | 2e-06 | 3.3e-06 | 4.9e-06 | 6.7e-06 | 9.5e-06 | 1.38e-05 | 1.86e-05 | 2.41e-05 | 3.01e-05
in n-propanol | 2.98e-05 | 4.12e-05 | 5.26e-05 | 6.51e-05 | 7.7e-05 | 9.09e-05 | 0.000106 | 0.000124 | 0.000142
